Data reported in PubChem BioAssay (NCI).
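Where inhibition never reached the appropriate level, the endpoint shown equals the highest concentration tested. Otherwise, values were interpolated linearly from a five-concentration, 48-hour dose response in 96-well plates. GI50 = concentration required for 50% inhibition of growth. TGI marks complete inhibition of growth.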

Legend:
Assay in all cases: NCI-60 cell line screen, 48 h
HOP-92 NSCLC = system: HOP-92 NSCLC
NCI-H522 lung = system: NCI-H522 lung
OVCAR-3 ovarian = system: OVCAR-3 ovarian
SF-268 CNS = system: SF-268 CNS
SR leukemia = system: SR leukemia
TK-10 renal = system: TK-10 renal
NCI-H460 lung = system: NCI-H460 lung
HS 578T breast = system: HS 578T breast
MCF7 breast = system: MCF7 breast
BT-549 breast = system: BT-549 breast

SMILES	TGI (HOP-92 NSCLC) [µM]	TGI (NCI-H522 lung) [µM]	TGI (OVCAR-3 ovarian) [µM]	TGI (SF-268 CNS) [µM]	TGI (SR leukemia) [µM]	TGI (TK-10 renal) [µM]	TGI (NCI-H460 lung) [µM]	GI50 (HOP-92 NSCLC) [µM]	GI50 (HS 578T breast) [µM]	TGI (HS 578T breast) [µM]	GI50 (MCF7 breast) [µM]	TGI (MCF7 breast) [µM]	GI50 (NCI-H460 lung) [µM]	GI50 (NCI-H522 lung) [µM]	GI50 (OVCAR-3 ovarian) [µM]	GI50 (SF-268 CNS) [µM]	GI50 (SR leukemia) [µM]	GI50 (TK-10 renal) [µM]	TGI (BT-549 breast) [µM]	GI50 (BT-549 breast) [µM]
N#CC(Sc1ccccc1)C(N)=O (stereo not given)	> 100	> 100	> 100	> 100	> 100	> 100	–	–	–	–	–	–	–	–	–	–	–	–	–	–
O=CCCn1[nH]c(=O)ccc1=O	> 100	–	> 100	> 100	> 100	> 100	> 100	–	–	–	–	–	–	–	–	–	–	–	–	–
O=C(O)c1cnc2c(ccc3[nH]cccc32)c1=O	–	> 100	> 100	> 100	> 100	> 100	> 100	–	–	–	–	–	–	–	–	–	–	–	–	–
COc1ccc(OC)c(N2CC(O)=C(c3nc4ccccc4s3)C2=N)c1	> 100	78.1	> 100	> 100	> 100	> 100	> 100	40.6	34.5	> 100	60.8	> 100	63	17.9	74.1	> 100	6.77	> 100	–	–
COc1ccc(O)c(/C=N\Nc2ccccc2)c1	> 100	49.2	–	> 100	–	–	> 100	–	–	> 100	–	> 100	–	–	–	–	–	–	> 100	–
CC(=O)N1c2ccccc2N(C(C)=O)C1c1ccc(C2N(C(C)=O)c3ccccc3N2C(C)=O)[nH]1	> 100	> 100	> 100	> 100	> 100	> 100	> 100	–	–	–	–	–	–	–	–	–	–	–	–	–
O=CN/C=C/c1ccccc1	> 100	> 100	> 100	> 100	> 100	> 100	> 100	–	–	–	–	–	–	–	–	–	–	–	–	–
C[C@@H]1CC[C@@]2(C)OC(c3ccccc3)[C@H](CO)N2C1=O (stereo not given in full)	> 100	–	> 100	> 100	> 100	> 100	> 100	–	–	–	–	–	–	–	–	–	–	–	–	–
COc1ccc2cc3c4cc(OC)c(OC)cc4ccn3c2c1	> 100	> 100	–	> 100	> 100	> 100	> 100	–	–	–	–	–	–	–	–	–	–	–	–	–
ClCc1ccccc1Cn1cnc2nc(Cl)nc(Cl)c21	–	7.17	12.3	> 49.4	5.66	29.8	> 24.3	–	0.331	1.22	–	–	2.09	2.94	5.29	0.379	0.64	13.5	3.08	1.34
O=S1Nc2cccc(C(F)(F)F)c2S1 (stereo not given)	73.2	> 100	> 100	> 100	> 100	> 100	> 100	–	–	–	–	–	–	–	–	–	–	–	–	–
O/N=C1/CCCC/C1=C\c1ccc(Cl)c(Cl)c1	–	–	49.7	> 100	–	> 100	57.1	–	–	–	–	–	–	–	–	–	–	–	–	–
N#Cc1c(N)nc2c(c1-c1ccc(Cl)cc1)COc1ccc(F)cc1-2	> 100	59.5	50.2	> 100	–	> 100	> 100	31.6	–	–	17.9	> 100	37.1	23	23.2	37.1	–	34.7	51.2	22
CCCCCN(CCCCC)CCC[C@@H](C)[C@H]1CC[C@H]2[C@@H]3[C@H](OCCCN)C[C@@H]4C[C@H](OCCCN)CC[C@]4(C)[C@H]3C[C@H](OCCCN)[C@]12C	6.45	12.3	36.1	31.5	9.28	–	17.3	0.68	–	–	14.5	34.7	2.79	2.98	17	13.6	2.38	–	8.37	3.27
Clc1ccc(-c2cnc3c(-c4ccnc(N5CCNCC5)c4)cnn3c2)cc1	–	5.89	3.42	3.69	4.58	3.43	3.53	–	–	–	1.85	3.66	1.89	2.37	1.96	1.91	1.6	1.99	3.02	1.6
COc1ccc(C2(Cl)C(Cl)(C(F)(F)F)C2(Cl)C(F)(F)F)cc1 (stereo not given)	27.1	–	28.8	29	30.7	32	30.2	–	–	–	–	–	–	–	–	–	–	–	–	–
